# Literature values, collected in patent US8859624B2, “Stable rasagiline composition” (Chongqing Pharmaceutical Research Institute Co., Ltd., priority 2009, dated 2014).
# Conditions: taking food after oral administration
smiles,measurement,value
"C#CCN[C@@H]1CCc2ccccc21 [Rasagiline, rasagiline]",decrease of blood drug concentration,60%
